For the experiment, the target named is T1, human APJ receptor (Homo sapiens, UniProt P35414).
T1 construct: expressed in transfected cells
T1 sequence (P35414 1-380): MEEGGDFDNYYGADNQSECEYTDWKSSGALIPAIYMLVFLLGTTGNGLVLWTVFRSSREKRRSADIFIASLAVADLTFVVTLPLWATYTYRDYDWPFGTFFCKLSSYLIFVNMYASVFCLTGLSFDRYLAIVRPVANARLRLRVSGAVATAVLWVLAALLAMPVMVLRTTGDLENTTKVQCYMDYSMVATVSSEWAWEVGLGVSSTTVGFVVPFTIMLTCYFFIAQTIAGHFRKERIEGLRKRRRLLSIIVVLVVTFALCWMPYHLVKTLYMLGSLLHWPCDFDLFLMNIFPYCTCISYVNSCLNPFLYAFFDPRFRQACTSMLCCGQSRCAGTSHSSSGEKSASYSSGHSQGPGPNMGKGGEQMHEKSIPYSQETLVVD
The experiment in a line: Intracellular cAMP accumulation assay (APJ hcAMP, HTRF). It is filed as cell-based. The following applies: HEK293 cells stably expressing human APJ receptor. The essentials:
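Inhibition of 2 μM forskolin-driven cAMP ([…] present) measured by HTRF in 5,000 HEK293 cells/well stably expressing human APJ, 30 min, room temperature. EC50 came from a variable-slope sigmoidal fit; Ymax was relative to (Pyr1)apelin-13 set at 100%.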
A general note: Cyclic AMP is a second messenger, typically raised through Gs and lowered through Gi signalling.

[1] abbreviates: Table 1, inhibition of forskolin-mediated cAMP production, read-out: APJ hcAMP EC50.
Where [2] appears, read: Table 2, read-out: APJ cAMP Human EC50.

Where two headings read alike, the source gives them in different places. A value given as a limit tells only on which side of the number the result lay.

`CCC[C@@H](NC(=O)c1ccc(-c2cc(Cl)ccc2-c2nc3cc(C4CC4)ccc3[nH]2)c(C(=O)O)c1)c1ccccc1` [Example 15, 5′-chloro-2′-(5-cyclopropyl-1H-1,3-benzodiazol-2-yl)-4-{[(1R)-1-phenylbutyl]carbamoyl}-[1,1′-biphenyl]-2-carboxylic acid]: the EC50 (commonly the concentration at which the effect is half-maximal) under setting [1] is under 10 nM and the EC50 under setting [2] is under 10 nM.
With `CCC[C@@H](NC(=O)c1ccc(-c2cc(Cl)ccc2-c2nc3cc(CC(F)(F)F)ccc3[nH]2)c(C(=O)O)c1)c1ccccc1` [Example 16, 5′-chloro-4-{[(1R)-1-phenylbutyl]carbamoyl}-2′-[5-(2,2,2-trifluoroethyl)-1H-1,3-benzodiazol-2-yl]-[1,1′-biphenyl]-2-carboxylic acid], the EC50 is under 10 nM under setting [1] and under 10 nM under setting [2].
For `CCC[C@@H](NC(=O)c1ccc(-c2cc(Cl)ccc2-c2nc3c(F)cccc3[nH]2)c(C(=O)O)c1)c1ccccc1` [Example 17, 5′-chloro-2′-(4-fluoro-1H-1,3-benzodiazol-2-yl)-4-{[(1R)-1-phenylbutyl]carbamoyl}-[1,1′-biphenyl]-2-carboxylic acid], the EC50 is under 10 nM under setting [1] and under 10 nM under setting [2].
Turning to `CCC[C@@H](NC(=O)c1ccc(-c2cc(Cl)ccc2-c2nc3cc(C(F)(F)F)ccc3[nH]2)c(C(=O)O)c1)c1ccccc1` [Example 18, 5′-chloro-4-{[(1R)-1-phenylbutyl]carbamoyl}-2′-[5-(trifluoromethyl)-1H-1,3-benzodiazol-2-yl]-[1,1′-biphenyl]-2-carboxylic acid], the 50% effective concentration (EC50) is under 10 nM under setting [1] and under 10 nM under setting [2].
For the compound `CCC[C@@H](NC(=O)c1ccc(-c2cc(Cl)ccc2-c2nc3cc(C(C)(C)C)ccc3[nH]2)c(C(=O)O)c1)c1ccccc1` [Example 19, 2′-(5-tert-butyl-1H-1,3-benzodiazol-2-yl)-5′-chloro-4-{[(1R)-1-phenylbutyl]carbamoyl}-[1,1′-biphenyl]-2-carboxylic acid], the EC50 under setting [1] is under 10 nM and the EC50 under setting [2] is under 10 nM.
`CCC[C@@H](NC(=O)c1ccc(-c2cc(Cl)ccc2-c2nc3c(O)cccc3[nH]2)c(C(=O)O)c1)c1ccccc1` [Example 20, 5′-chloro-2′-(4-hydroxy-1H-1,3-benzodiazol-2-yl)-4-{[(1R)-1-phenylbutyl]carbamoyl}-[1,1′-biphenyl]-2-carboxylic acid]: the EC50 was under 10 nM under setting [1] and under 10 nM under setting [2].
`CCC[C@@H](NC(=O)c1ccc(-c2cc(Cl)ccc2-c2nc3cc(C(=O)OC)ccc3[nH]2)c(C(=O)O)c1)c1ccccc1` [Example 21, 5′-chloro-2′-[5-(methoxycarbonyl)-1H-1,3-benzodiazol-2-yl]-4-{[(1R)-1-phenylbutyl]carbamoyl}-[1,1′-biphenyl]-2-carboxylic acid]: the EC50 under setting [1] was under 10 nM and the EC50 under setting [2] is under 10 nM.
Turning to `CCC[C@@H](NC(=O)c1ccc(-c2cc(Cl)ccc2-c2nc3cc(OC(F)(F)F)ccc3[nH]2)c(C(=O)O)c1)c1ccccc1` [Example 22, 5′-chloro-4-{[(1R)-1-phenylbutyl]carbamoyl}-2′-[5-(trifluoromethoxy)-1H-1,3-benzodiazol-2-yl]-[1,1′-biphenyl]-2-carboxylic acid], the EC50 was in the range of 10 to 100 nM under setting [1] and 10 to 100 nM under setting [2].
With `CCC[C@@H](NC(=O)c1ccc(-c2cc(Cl)ccc2-c2nc3ncc(C)cc3[nH]2)c(C(=O)O)c1)c1ccccc1` [Example 23, 5′-chloro-2′-{6-methyl-1H-imidazo[4,5-b]pyridin-2-yl}-4-{[(1R)-1-phenylbutyl]carbamoyl}-[1,1′-biphenyl]-2-carboxylic acid], the EC50 runs as follows: under setting [1], 10 to 100 nM; under setting [2], 10 to 100 nM.
As to `CCC[C@@H](NC(=O)c1ccc(-c2cc(Cl)ccc2-c2nc3ccncc3[nH]2)c(C(=O)O)c1)c1ccccc1` [Example 24, 5′-chloro-2′-{1H-imidazo[4,5-c]pyridin-2-yl}-4-{[(1R)-1-phenylbutyl]carbamoyl}-[1,1′-biphenyl]-2-carboxylic acid], the EC50 runs as follows: under setting [1], 10 to 100 nM; under setting [2], 10 to 100 nM.
With `CCC[C@@H](NC(=O)c1ccc(-c2cc(Cl)ccc2-c2nc3c(ccc4ccccc43)[nH]2)c(C(=O)O)c1)c1ccccc1` [Example 25, 5′-chloro-2′-{3H-naphtho[1,2-d]imidazol-2-yl}-4-{[(1R)-1-phenylbutyl]carbamoyl}-[1,1′-biphenyl]-2-carboxylic acid], the 50% effective concentration (EC50) under setting [1] was 10 to 100 nM and the EC50 under setting [2] was in the range of 10 to 100 nM.
For `CCC[C@@H](NC(=O)c1ccc(-c2cc(Cl)ccc2-c2nc3cc4c(cc3[nH]2)OCO4)c(C(=O)O)c1)c1ccccc1` [Example 26, 5′-chloro-2′-{4,6-dioxa-10,12-diazatricyclo[7.3.0.0^3,^7]dodeca-1(9),2,7,10-tetraen-11-yl}-4-{[(1R)-1-phenylbutyl]carbamoyl}-[1,1′-biphenyl]-2-carboxylic acid], the EC50 by setting is: under setting [1], 10 to 100 nM; under setting [2], 10 to 100 nM.
Regarding `CCC[C@@H](NC(=O)c1ccc(-c2cc(Cl)ccc2-c2nc3cc4ccccc4cc3[nH]2)c(C(=O)O)c1)c1ccccc1` [Example 27, 5′-chloro-2′-{1H-naphtho[2,3-d]imidazol-2-yl}-4-{[(1R)-1-phenylbutyl]carbamoyl}-[1,1′-biphenyl]-2-carboxylic acid], the EC50 lay within 10 to 100 nM under setting [1] and 10 to 100 nM under setting [2].
For `CCC[C@@H](NC(=O)c1ccc(-c2cc(Cl)ccc2-c2nc3cc(C#N)ccc3[nH]2)c(C(=O)O)c1)c1ccccc1` [Example 28, 5′-chloro-2′-(5-cyano-1H-1,3-benzodiazol-2-yl)-4-{[(1R)-1-phenylbutyl]carbamoyl}-[1,1′-biphenyl]-2-carboxylic acid], the EC50 under setting [1] lay within 10 to 100 nM and the concentration giving a half-maximal response (EC50) under setting [2] was 10 to 100 nM.
As to `CCC[C@@H](NC(=O)c1ccc(-c2cc(Cl)ccc2-c2nc3ncncc3[nH]2)c(C(=O)O)c1)c1ccccc1` [Example 29, 5′-chloro-4-{[(1R)-1-phenylbutyl]carbamoyl}-2′-(7H-purin-8-yl)-[1,1′-biphenyl]-2-carboxylic acid], the EC50 is, setting by setting: under setting [1], 10 to 100 nM; under setting [2], 10 to 100 nM.
With `CCC[C@@H](NC(=O)c1ccc(-c2cc(Cl)ccc2-c2nc3nc(C)ccc3[nH]2)c(C(=O)O)c1)c1ccccc1` [Example 30, 5′-chloro-2′-{5-methyl-1H-imidazo[4,5-b]pyridin-2-yl}-4-{[(1R)-1-phenylbutyl]carbamoyl}-[1,1′-biphenyl]-2-carboxylic acid], the EC50 is, setting by setting: under setting [1], 10 to 100 nM; under setting [2], 10 to 100 nM.
Take `CCC[C@@H](NC(=O)c1ccc(-c2cc(Cl)ccc2-c2nc3ncccc3[nH]2)c(C(=O)O)c1)c1ccccc1` [Example 31, 5′-chloro-2′-{1H-imidazo[4,5-b]pyridin-2-yl}-4-{[(1R)-1-phenylbutyl]carbamoyl}-[1,1′-biphenyl]-2-carboxylic acid]: the EC50 under setting [1] is 10 to 100 nM and the EC50 under setting [2] is 10 to 100 nM.
Consider `CCC[C@@H](NC(=O)c1ccc(-c2cc(C)ccc2-c2nc3ccccc3[nH]2)c(C(=O)O)c1)c1ccccc1` [Example 32, 2′-(1H-1,3-benzodiazol-2-yl)-5′-methyl-4-{[(1R)-1-phenylbutyl]carbamoyl}-[1,1′-biphenyl]-2-carboxylic acid], for which the concentration for a half-maximal effect (EC50) was under 10 nM under setting [1] and under 10 nM under setting [2].

The values are drawn from patent publication US11498903B2 (BRISTOL-MYERS SQUIBB COMPANY, priority 2017, dated 2022).
